From patent publication US11992494B2, “Cyclopentathiophene carboxamide derivatives as platelet activating factor receptor antagonists” (Boehringer Ingelheim International GmbH, priority 2021, dated 2024) come the findings set out here.

PAFR, sequence (P25105 whole entry): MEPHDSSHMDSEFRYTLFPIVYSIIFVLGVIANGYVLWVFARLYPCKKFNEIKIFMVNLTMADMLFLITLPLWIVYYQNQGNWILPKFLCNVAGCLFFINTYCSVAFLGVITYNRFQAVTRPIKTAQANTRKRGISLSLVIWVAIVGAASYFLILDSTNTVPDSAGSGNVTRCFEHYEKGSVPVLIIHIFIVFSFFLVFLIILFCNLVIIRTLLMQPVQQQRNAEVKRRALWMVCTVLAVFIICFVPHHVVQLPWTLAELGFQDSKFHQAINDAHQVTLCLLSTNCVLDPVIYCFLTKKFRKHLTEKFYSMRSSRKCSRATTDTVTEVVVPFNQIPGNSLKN

The target in the first test is PAFR (Homo sapiens, UniProt P25105). As to the kind of experiment: cellular HTRF IP1 assay: inhibition of PAFR activation by PAF C-16 ligand (endpoint assay). In kind it is cell-based. More on the design: expressed in transfected cells; host or cells: HEK293. The settings on record: HEK293 cells overexpressing human PAFR; PAF ligand 11 nM; Table 2. The method, then:
The ability of compounds of formula (I) to inhibit the activation of the PAF receptor (PAFR) by the PAF C-16 ligand (PAF) is determined using the following cellular HTRF IP1 assay (IP1 Gq assay kit from Cisbio, Cat. no.: 62IP1APEJ) in assay buffer (1×HBSS, 20 mM Hepes, pH 7.4, 50 mM LiCl and containing 0.1% (w/v) BSA):
Evaluation of the Inhibition of PAFR Activation Using an Endpoint Assay
HEK293 cells overexpressing human PAFR (produced in-house) are seeded into a Poly-D-Lysine coated 384 well white cell culture microtiter assay plate with lid (15.000 cells per well). Subsequently, the plates are incubated over night at 37° C./5% CO2. On the next day, cells are being washed and subsequently, various concentrations of the test compounds (compounds in 100% DMSO; final concentration of DMSO in wells is 1%) are added to the assay plate via Echo 555 acoustic liquid handler. Plates are then incubated with lid for 90 minutes at 37° C./5% CO2. Thereafter, PAF ligand (Cayman Chemical Company, Item no.: 60900) is added at a final concentration of 11 nM. Plates are then incubated with lid for 60 minutes at 37° C./5% CO2. Then, 5 μl per well of Anti-IP1-Antibody-Cryptate solution and 5 μl per well of IP1-d2 solution are added to all wells of the plate and the plate is incubated for another 60 minutes light protected at room temperature. The emissions at 620 nm and 665 nm (Excitation wavelength: 320 nm) are measured using an Envision Reader (PerkinElmer).
Take `Cc1nnc2n1-c1sc3c(c1C(c1ccccc1Cl)=NC21CC1)C[C@H](C(=O)N(C)[C@@H]1CCOC1)C3` [Example 48]: the IC50 – broadly, the midpoint of a concentration-inhibition curve – stood at 6.7 nM. Compound `Cc1nnc2n1-c1sc3c(c1C(c1ccccc1Cl)=NC21CC1)C[C@H](C(=O)NC1(C(F)(F)F)CC1)C3` [Example 16] showed an IC50 of 4.1 nM.

Compound `CCn1ncc2c1CC[C@H](NC(=O)[C@@H]1Cc3sc4c(c3C1)C(c1ccccc1Cl)=NC1(CC1)c1nnc(C)n1-4)C2` [Example 100] showed an IC50 of 22 nM. Same read-out and setting: as for `Cc1nnc2n1-c1sc3c(c1C(c1ccccc1Cl)=NC21CC1)C[C@H](C(=O)N(C)[C@H]1CC[C@H](O)CC1)C3` [Example 112], the figure is 22 nM. The compound `Cc1nnc2n1-c1sc3c(c1C(c1ccccc1Cl)=NC21CC1)C[C@H](C(=O)N[C@H]1C[C@@H]1c1ccccc1)C3` [Example 17] had an IC50 of 1.2 nM. As for `CCc1nnc2n1-c1sc3c(c1C(c1ccccc1Cl)=NC21CC1)C[C@H](C(=O)N1CCOCC1)C3` [Example 119, (13′S)-9′-(2-chlorophenyl)-3′-ethyl-13′-(morpholine-4-carbonyl)-16′-thia-2′,4′,5′,8′-tetraazaspiro[cyclopropane-1,7′-tetracyclo[8.6.0.0^2,6.0^11,15]hexadecane]-1′(10′),3′,5′,8′,11′(15′)-pentaene], the IC50 turned out to be 15 nM. Compound `Cc1nnc2n1-c1sc3c(c1C(c1ccccc1Cl)=NC21CC1)C[C@H](C(=O)N[C@H]1CCOC1)C3` [Example 78] had an IC50 of 15 nM.

`Cc1noc(C)c1NC(=O)[C@@H]1Cc2sc3c(c2C1)C(c1ccccc1Cl)=NC1(CC1)c1nnc(C)n1-3` [Example 128] displayed an IC50 of 5.7 nM.

As for `Cc1nnc2n1-c1sc3c(c1C(c1ccccc1Cl)=NC21CC1)C[C@H](C(=O)NC1CCC1(C)C)C3` (stereo partly drawn) [Example 47], 1.6 nM corresponded to half-maximal inhibition (IC50). The same measure, in the same setting: as for `Cc1nnc2n1-c1sc3c(c1C(c1ccccc1Cl)=NC21CC1)C[C@H](C(=O)NC1(c2ccc(Cl)cn2)CC1)C3` [Example 35], the figure is 1.6 nM. Same read-out and setting: as for `Cc1nnc2n1-c1sc3c(c1C(c1ccccc1Cl)=NC21CC1)C[C@H](C(=O)NC1CC2CCC(C1)O2)C3` (stereo partly drawn) [Example 90], the figure is 8.8 nM. Same read-out and setting: as for `Cc1nnc2n1-c1sc3c(c1C(c1ccccc1Cl)=NC21CC1)C[C@H](C(=O)N[C@H]1CC[C@@H](F)C1)C3` [Example 70], the figure is 2.6 nM.

On to `Cc1nnc2n1-c1sc3c(c1C(c1ccccc1Cl)=NC21CC1)C[C@H](C(=O)N[C@H]1CC[C@@H](F)CC1)C3` [Example 36], for which the IC50 was 3.5 nM. In turn, `Cc1nnc2n1-c1sc3c(c1C(c1ccccc1Cl)=NC21CC1)C[C@H](C(=O)N(C)C1CCC1)C3` [Example 21] showed an IC50 of 1.1 nM. The same measure, in the same setting: then `Cc1nnc2n1-c1sc3c(c1C(c1ccccc1Cl)=NC21CC1)C[C@H](C(=O)N(C)[C@@H]1CCCC[C@@H]1O)C3` [Example 41], with 3.9 nM. The same measure, in the same setting: then `Cc1nnc2n1-c1sc3c(c1C(c1ccccc1Cl)=NC21CC1)C[C@H](C(=O)NC1CCCC(F)(F)C1)C3` (stereo partly drawn) [Example 25], with 2.3 nM; and `Cc1nnc2n1-c1sc3c(c1C(c1ccccc1Cl)=NC21CC1)C[C@H](C(=O)NC1CCc2ccc(F)cc21)C3` (stereo partly drawn) [Example 22], with 0.6 nM.

Take `Cc1nnc2n1-c1sc3c(c1C(c1ccccc1Cl)=NC21CC1)C[C@H](C(=O)NC1CCCCC1)C3` [Example 59]: the IC50 came to 1.6 nM.

Regarding `COc1ccccc1C1=NC2(CC2)c2nnc(C)n2-c2sc3c(c21)C[C@H](C(=O)N1CCOCC1)C3` [Example 130, (13′S)-9′-(2-methoxyphenyl)-3′-methyl-13′-(morpholine-4-carbonyl)-16′-thia-2′,4′,5′,8′-tetraazaspiro[cyclopropane-1,7′-tetracyclo[8.6.0.0^2,6.0^11,15]hexadecane]-1′(10′),3′,5′,8′,11′(15′)-pentaene], the midpoint of inhibition, the IC50, lay at 84 nM. `Cc1nnc2n1-c1sc3c(c1C(c1ccccc1Cl)=NC21CC1)C[C@H](C(=O)NC1COCC(F)(F)C1)C3` (stereo partly drawn) [Example 43] displayed an IC50 of 3.7 nM. Still for that read-out and setting: as for `Cc1nnc2n1-c1sc3c(c1C(c1cc(Cl)ccc1Cl)=NC21CC1)C[C@H](C(=O)N1CCOCC1)C3` [Example 3, (13′S)-9′-(2,5-dichlorophenyl)-3′-methyl-13′-(morpholine-4-carbonyl)-16′-thia-2′,4′,5′,8′-tetraazaspiro[cyclopropane-1,7′-tetracyclo[8.6.0.0^2,6.0^11,15]hexadecane]-1′(10′),3′,5′,8′,11′(15′)-pentaene], the figure is 17 nM; as for `Cc1nnc2n1-c1sc3c(c1C(c1ccccc1Cl)=NC21CC1)C[C@H](C(=O)NC1(C)CCC1)C3` [Example 38], 1.6 nM. Regarding `Cc1nnc2n1-c1sc3c(c1C(c1ccccc1Cl)=NC21CC1)C[C@H](C(=O)NC1(C)CCCC1)C3` [Example 26], half-maximal inhibition (IC50) required 1.3 nM.

In turn, `CO[C@@H]1CC[C@H]1NC(=O)[C@@H]1Cc2sc3c(c2C1)C(c1ccccc1Cl)=NC1(CC1)c1nnc(C)n1-3` [Example 57] had a concentration for half-maximal inhibition (IC50) of 7.1 nM.

Compound `Cc1nnc2n1-c1sc3c(c1C(c1ccccc1Cl)=NC21CC1)C[C@H](C(=O)NC1CCC(F)(F)CC1)C3` [Example 118] displayed an IC50 of 2.8 nM.

`Cc1nnc2n1-c1sc3c(c1C(c1ccccc1Cl)=NC21CC1)C[C@H](C(=O)NC1CCc2cc(F)ccc21)C3` (stereo partly drawn) [Example 61] displayed an IC50 of 0.6 nM. Same read-out and setting: then `Cc1nnc2n1-c1sc3c(c1C(c1ccccc1Cl)=NC21CC1)C[C@H](C(=O)N1CCOCC12CC2)C3` [Example 127, (13′S)-9′-(2-chlorophenyl)-3′-methyl-13′-{7-oxa-4-azaspiro[2.5]octane-4-carbonyl}-16′-thia-2′,4′,5′,8′-tetraazaspiro[cyclopropane-1,7′-tetracyclo[8.6.0.0^2,6.0^11,15]hexadecane]-1′(10′),3′,5′,8′,11′(15′)-pentaene], with 5.8 nM. Take `Cc1nnc2n1-c1sc3c(c1C(c1ccccc1Cl)=NC21CC1)C[C@H](C(=O)N[C@@H]1CCc2ccccc21)C3` [Example 32]: the half-maximal inhibitory concentration (IC50) stood at 1 nM.

For the compound `Cc1nnc2n1-c1sc3c(c1C(c1ccccc1Cl)=NC21CC1)C[C@H](C(=O)N[C@H]1CC[C@H](C(F)F)CC1)C3` [Example 76], the IC50 was determined as 1.9 nM.

In turn, `Cc1nnc2n1-c1sc3c(c1C(c1ccccc1Cl)=NC21CC1)C[C@H](C(=O)N[C@H]1CCc2cccc(F)c21)C3` [Example 53] returned an IC50 of 0.5 nM.

Consider `Cc1nnc2n1-c1sc3c(c1C(c1cc(C#N)ccc1Cl)=NC21CC1)C[C@H](C(=O)N1CCOCC1)C3` [Example 2, 4-chloro-3-[(13′S)-3′-methyl-13′-(morpholine-4-carbonyl)-16′-thia-2′,4′,5′,8′-tetraazaspiro[cyclopropane-1,7′-tetracyclo[8.6.0.0^2,6.0^11,15]hexadecane]-1′(10′),3′,5′,8′,11′(15′)-pentaen-9′-yl]benzonitrile], for which the midpoint of inhibition, the IC50, lay at 83 nM. The same measure, in the same setting: as for `Cc1nnc2n1-c1sc3c(c1C(c1ccccc1Cl)=NC21CC1)C[C@H](C(=O)NC1(C)CCOCC1)C3` [Example 45], the figure is 12 nM; as for `Cc1nnc2n1-c1sc3c(c1C(c1ccccc1Cl)=NC21CC1)C[C@H](C(=O)N1C[C@H](C)O[C@@H](C)C1)C3` [Example 108, (13′S)-9′-(2-chlorophenyl)-13′-[(2S,6S)-2,6-dimethylmorpholine-4-carbonyl]-3′-methyl-16′-thia-2′,4′,5′,8′-tetraazaspiro[cyclopropane-1,7′-tetracyclo[8.6.0.0^2,6.0^11,15]hexadecane]-1′(10′),3′,5′,8′,11′(15′)-pentaene], 4.6 nM. The same measure, in the same setting: as for `Cc1nnc2n1-c1sc3c(c1C(c1ccccc1Cl)=NC21CC1)C[C@H](C(=O)N(C)C1CCC(C)(C)CC1)C3` [Example 79], the figure is 0.9 nM; as for `Cc1nnc2n1-c1sc3c(c1C(c1ccccc1Cl)=NC21CC1)C[C@H](C(=O)N(C)C1CCCCC1)C3` [Example 44], 1.3 nM; as for `Cc1nnc2n1-c1sc3c(c1C(c1ccccc1Cl)=NC21CC1)C[C@H](C(=O)NC1(c2cccc(F)c2)CC1)C3` [Example 56], 1.1 nM. On the same count and under the same terms, then `Cc1nnc2n1-c1sc3c(c1C(c1ccccc1Cl)=NC21CC1)C[C@H](C(=O)N[C@@H]1CCc2cc(C#N)ccc21)C3` [Example 63], with 1.7 nM; and `Cc1nnc2n1-c1sc3c(c1C(c1ccccc1Cl)=NC21CC1)C[C@H](C(=O)NC1(CO)CCCCC1)C3` [Example 71], with 3.9 nM.

Staying with this test, now noted: S-bepafant and its methylated derivatives in the above-mentioned assay.
Take `Cc1nnc2n1-c1sc3c(c1C(c1ccccc1Cl)=N[C@@H]2C)C[C@H](C(=O)N1CCOCC1)C3` [comparative example 1b, reference compound]: the IC50 is > 1000 nM.

The same test, now with this note: dedicated head-to-head comparison assay run: cyclopropylene vs di-methyl / cyclobutylene analogues.
With `Cc1nnc2n1-c1sc3c(c1C(c1ccccc1Cl)=NC2(C)C)C[C@H](C(=O)NC1(c2ccccn2)CC1)C3` [reference compound], the IC50 is 26 nM. On the same count and under the same terms, as for `Cc1nnc2n1-c1sc3c(c1C(c1ccccc1Cl)=NC2(C)C)C[C@H](C(=O)N1CCC(F)(F)CC1)C3` [reference compound], the figure is 30 nM.

In the case of `Cc1nnc2n1-c1sc3c(c1C(c1ccccc1Cl)=NC21CC1)C[C@H](C(=O)N(C)[C@H]1CC[C@H](O)CC1)C3` [Example 112], the IC50 was determined as 11.9 nM. The compound `Cc1noc(C)c1NC(=O)[C@@H]1Cc2sc3c(c2C1)C(c1ccccc1Cl)=NC1(CC1)c1nnc(C)n1-3` [Example 128] registered an IC50 of 5.5 nM. Regarding `Cc1nnc2n1-c1sc3c(c1C(c1ccccc1Cl)=NC2(C)C)C[C@H](C(=O)NC1CCC1)C3` [reference compound], the IC50 was 7.6 nM. `Cc1nnc2n1-c1sc3c(c1C(c1ccccc1Cl)=NC21CC1)C[C@H](C(=O)NC1CCc2cc(F)ccc21)C3` (stereo partly drawn) [Example 61]: the IC50 was found to be 1.1 nM.
